Columns and labels:
D(2) dopamine receptor [1] = molecular target: T1, D(2) dopamine receptor (Homo sapiens, UniProt P14416)
Description: Binding affinity to dopamine D2

D(3) dopamine receptor [2] = molecular target: T2, D(3) dopamine receptor (Homo sapiens, UniProt P35462); assay: biochemical
Description: (§1) Displacement of [3H]spiperone from human dopamine D3 expressed in CHO cell membrane

D(4) dopamine receptor = molecular target: T3, D(4) dopamine receptor (Homo sapiens, UniProt P21917); assay: biochemical
T3 sequence (P21917 whole entry): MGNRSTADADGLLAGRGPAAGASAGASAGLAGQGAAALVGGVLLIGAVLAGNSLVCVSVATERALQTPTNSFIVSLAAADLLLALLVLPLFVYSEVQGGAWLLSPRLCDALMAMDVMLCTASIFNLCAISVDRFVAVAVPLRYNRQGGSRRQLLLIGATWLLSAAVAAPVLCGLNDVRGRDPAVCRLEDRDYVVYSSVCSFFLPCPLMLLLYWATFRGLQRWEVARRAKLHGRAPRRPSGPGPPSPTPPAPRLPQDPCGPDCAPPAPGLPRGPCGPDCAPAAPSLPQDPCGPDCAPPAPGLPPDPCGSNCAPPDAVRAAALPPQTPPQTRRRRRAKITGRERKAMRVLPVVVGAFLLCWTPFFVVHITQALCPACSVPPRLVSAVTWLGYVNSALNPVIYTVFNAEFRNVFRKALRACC
Description: Displacement of [3H]spiperone from human dopamine D4.4 expressed in CHO cell membrane

D(2) dopamine receptor [3] = molecular target: T1, D(2) dopamine receptor; assay: Displacement of [3H]spiperone from human dopamine D2(long) expressed in CHO cell membrane
D(1A) dopamine receptor = D(1A) dopamine receptor (Sus scrofa, UniProt P50130); assay: Displacement of [3H][…] from porcine dopamine D1 in porcine striatal membrane; format: cell membranes, Striatum
D(2) dopamine receptor [4] = molecular target: T1, D(2) dopamine receptor; assay: Displacement of [3H]spiperone from human dopamine D2(short) expressed in CHO cell membrane
[5] = molecular target: Serotonin 2 (5-HT2) receptor (Homo sapiens, UniProt P41595+P28223+P28335); assay: Displacement of [3H]ketanserin from human 5HT2 receptor expressed in CHO cells; format: cell-based
[6] = molecular target: T4, 5-hydroxytryptamine receptor 1A (Homo sapiens, UniProt P08908); assay: Displacement of [3H]8-OH-DPAT from human 5HT1A receptor expressed in CHO cells; format: cell-based
T4 sequence (P08908 whole entry): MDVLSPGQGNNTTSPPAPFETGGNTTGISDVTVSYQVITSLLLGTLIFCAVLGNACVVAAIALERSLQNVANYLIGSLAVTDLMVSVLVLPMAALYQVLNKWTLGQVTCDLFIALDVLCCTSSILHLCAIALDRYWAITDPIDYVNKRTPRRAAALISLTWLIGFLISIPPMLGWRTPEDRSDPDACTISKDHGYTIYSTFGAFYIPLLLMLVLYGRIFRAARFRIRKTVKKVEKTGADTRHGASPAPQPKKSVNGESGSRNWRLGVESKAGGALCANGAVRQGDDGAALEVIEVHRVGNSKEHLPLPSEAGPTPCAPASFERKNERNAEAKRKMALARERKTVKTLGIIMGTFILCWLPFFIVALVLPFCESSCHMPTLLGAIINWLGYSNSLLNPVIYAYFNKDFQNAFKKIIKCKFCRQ

D(3) dopamine receptor [7] = molecular target: T2, D(3) dopamine receptor
Description: as §1

T1 sequence (P14416 whole entry): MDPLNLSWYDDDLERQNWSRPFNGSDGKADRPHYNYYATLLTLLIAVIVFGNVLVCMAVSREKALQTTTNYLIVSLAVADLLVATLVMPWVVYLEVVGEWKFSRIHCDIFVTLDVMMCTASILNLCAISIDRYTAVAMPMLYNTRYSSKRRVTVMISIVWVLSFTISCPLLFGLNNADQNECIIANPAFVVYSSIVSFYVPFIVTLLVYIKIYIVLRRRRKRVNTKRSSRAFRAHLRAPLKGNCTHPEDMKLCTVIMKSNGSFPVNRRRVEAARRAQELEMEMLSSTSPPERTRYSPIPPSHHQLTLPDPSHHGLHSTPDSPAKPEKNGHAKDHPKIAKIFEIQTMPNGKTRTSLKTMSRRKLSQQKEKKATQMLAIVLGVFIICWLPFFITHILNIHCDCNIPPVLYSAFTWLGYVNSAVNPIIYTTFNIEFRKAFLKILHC
T2 sequence (P35462 whole entry): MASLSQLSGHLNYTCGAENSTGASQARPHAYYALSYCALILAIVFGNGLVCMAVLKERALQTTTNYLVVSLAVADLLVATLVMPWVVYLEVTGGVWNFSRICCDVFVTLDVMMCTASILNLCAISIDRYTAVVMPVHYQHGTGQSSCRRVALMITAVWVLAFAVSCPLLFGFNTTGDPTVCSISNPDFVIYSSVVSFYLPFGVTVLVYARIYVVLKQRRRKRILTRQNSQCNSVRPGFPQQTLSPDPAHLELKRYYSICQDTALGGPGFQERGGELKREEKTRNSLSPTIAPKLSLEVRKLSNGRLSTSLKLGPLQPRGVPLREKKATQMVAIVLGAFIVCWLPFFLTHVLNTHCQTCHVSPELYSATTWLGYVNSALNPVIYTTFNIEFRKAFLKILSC
Sequence of D(1A) dopamine receptor (P50130 whole entry): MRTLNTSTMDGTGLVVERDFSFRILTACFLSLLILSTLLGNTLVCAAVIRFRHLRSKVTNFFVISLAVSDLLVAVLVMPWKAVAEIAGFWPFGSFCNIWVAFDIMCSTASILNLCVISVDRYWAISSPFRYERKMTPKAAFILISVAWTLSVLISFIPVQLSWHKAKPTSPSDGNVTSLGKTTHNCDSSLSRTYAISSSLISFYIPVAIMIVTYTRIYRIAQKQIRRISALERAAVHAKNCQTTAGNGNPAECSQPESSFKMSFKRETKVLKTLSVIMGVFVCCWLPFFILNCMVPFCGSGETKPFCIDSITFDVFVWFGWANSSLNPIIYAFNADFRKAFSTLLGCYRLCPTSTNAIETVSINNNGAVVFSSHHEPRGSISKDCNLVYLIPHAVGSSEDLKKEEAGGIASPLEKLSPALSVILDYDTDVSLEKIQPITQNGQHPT

SMILES | Ki (D(2) dopamine receptor [1]) | Ki (D(3) dopamine receptor [2]) | Ki (D(4) dopamine receptor) | further results
COc1ccc(Cn2nnc(C(=O)NCCCCN3CCN(c4ccccc4OC)CC3)c2C)cc1 | 55 nM | 28.8 nM | 282 nM | –
O=C(NCCCCN1CCN(c2cccc(Cl)c2Cl)CC1)c1cc2cc(Br)ccc2[nH]1 | 2290 nM | 0.741 nM | 603 nM | –
OCc1ccc2c(CN3CCN(c4ccc(Cl)cc4)CC3)cnn2c1 | 27500 nM | – | 19.5 nM | –
COc1ccc(C(=O)NCCCCN2CCN(c3ccccc3Cl)CC2)cc1OC | 282 nM | 3.09 nM | 170 nM | –
COc1ccccc1N1CCN(CCCCCNC(=O)c2nnn(Cc3ccccc3)c2C)CC1 | 9.33 nM | 15.8 nM | 158 nM | –
CCCc1c(C(=O)NCCCCN2CCN(c3ccccc3OC)CC2)nnn1Cc1ccc(OC)cc1 | 42.7 nM | 12.9 nM | 129 nM | –
COc1ccccc1N1CCN(CCCCNC(=O)c2nnn(Cc3ccccc3Br)c2C)CC1 | 61.7 nM | 32.4 nM | 91.2 nM | –
COc1ccccc1N1CCN(CCCCNC(=O)c2ccc(-c3ccc([18F])nc3)cc2)CC1 | – | 0.45 nM | 34 nM | Ki (D(2) dopamine receptor [3]): 15 nM; Ki (D(1A) dopamine receptor): 1300 nM; Ki (D(2) dopamine receptor [4]): 12 nM; Ki [5]: 760 nM; Ki [6]: 21 nM
COc1ccc(Cn2nnc(C(=O)NCCCCCN3CCN(c4ccccc4OC)CC3)c2C)cc1 | 17 nM | 87.1 nM | 269 nM | –
COc1ccccc1N1CCN(CCCCNC(=O)c2cc3cc(C#N)ccc3o2)CC1 | – | 4.27 nM | – | –
C#Cc1ccc2sc(C(=O)NCCCCN3CCN(c4ccccc4OC)CC3)cc2c1 | 407 nM | 0.389 nM | 30.9 nM | –
COc1ccccc1N1CCN(CCCCNC(=O)c2nnn(Cc3ccccc3)c2C)CC1 | 229 nM | 67.6 nM | 977 nM | –
O=C(NCCCCN1CCN(c2cccc(Cl)c2Cl)CC1)c1cc2cc(Br)ccc2o1 | 10000 nM | 3.47 nM | 3090 nM | –
O=C(NCCCCN1CCN(c2ccccc2Cl)CC1)c1ccc(-c2ccccc2)cc1 | 129 nM | 0.28 nM | 240 nM | –
COc1ccc(Cn2nnc(C(=O)NCCCCCN3CCN(c4cccc(Cl)c4Cl)CC3)c2C)cc1 | 9.12 nM | 33.9 nM | 288 nM | –
CCCc1c(C(=O)NCCCCN2CCN(c3cccc(Cl)c3Cl)CC2)nnn1Cc1ccccc1 | 14.1 nM | 2.4 nM | 219 nM | –
O=C(NCCCCN1CCN(c2cccc(Cl)c2Cl)CC1)c1cc2ccccc2[nH]1 | – | 0.661 nM | – | –
COc1ccccc1N1CCN(CCCCNC(=O)c2cc3cc(C#N)ccc3s2)CC1 | 67.6 nM | – | 44.7 nM | Ki (D(3) dopamine receptor [7]): 0.457 nM
CCCc1c(C(=O)NCCCCN2CCN(c3ccccc3OC)CC2)nnn1Cc1ccccc1Br | 21.9 nM | 3.47 nM | 75.9 nM | –

SMILES | Ki (D(2) dopamine receptor [1]) | Ki (D(3) dopamine receptor [2]) | Ki (D(4) dopamine receptor) | further results
COc1ccccc1N1CCN(CCCCNC(=O)c2cc3cc(Br)ccc3[nH]2)CC1 | 110 nM | 0.245 nM | 15.8 nM | –
Clc1ccc(N2CCN(Cc3cnn4c(I)cccc34)CC2)cc1 | 7590 nM | 2690 nM | – | –
N#Cc1ccc2cc(C(=O)NCCCCN3CCN(c4cccc(Cl)c4Cl)CC3)[nH]c2c1 | 339 nM | 0.355 nM | 631 nM | –
Cc1c(C(=O)NCCCCCN2CCN(c3cccc(Cl)c3Cl)CC2)nnn1Cc1ccccc1 | 10 nM | 8.51 nM | 251 nM | –
COc1ccccc1N1CCN(CCCCNC(=O)c2cc3cc(C#N)ccc3[nH]2)CC1 | 141 nM | 0.575 nM | 24 nM | –
CCCc1c(C(=O)NCCCCCN2CCN(c3ccccc3OC)CC2)nnn1Cc1ccccc1Br | 5.25 nM | 7.41 nM | 39.8 nM | –
Cc1c(C(=O)NCCCCN2CCN(c3cccc(Cl)c3Cl)CC2)nnn1Cc1ccccc1 | 38.9 nM | 4.27 nM | 282 nM | –
COc1ccccc1N1CCN(CCCCCNC(=O)c2nnn(Cc3ccccc3Br)c2C)CC1 | 4.9 nM | 15.1 nM | 41.7 nM | –
C#Cc1ccc2cc(C(=O)NCCCCN3CCN(c4ccccc4OC)CC3)sc2c1 | 200 nM | 0.38 nM | 151 nM | –
COc1ccccc1N1CCN(CCCCNC(=O)c2ccc(-c3cccc([18F])n3)cc2)CC1 | – | 0.37 nM | 28 nM | Ki (D(2) dopamine receptor [3]): 27 nM; Ki (D(1A) dopamine receptor): 870 nM; Ki (D(2) dopamine receptor [4]): 16 nM; Ki [5]: 450 nM; Ki [6]: 16 nM
COc1ccccc1N1CCN(CCCCNC(=O)c2cc3cc(Br)ccc3o2)CC1 | 95.5 nM | – | 17 nM | Ki (D(3) dopamine receptor [7]): 0.692 nM
Cc1cccc2c(CN3CCN(c4ccc(Cl)cc4)CC3)cnn12 | – | 3720 nM | – | –
c1ccc(C2CCN(Cc3cn(-c4ccccc4)nn3)CC2)cc1 | 219 nM | 93.3 nM | 3.24 nM | –
COc1ccccc1N1CCN(CCCCNC(=O)c2cc3ccc(C#N)cc3[nH]2)CC1 | 158 nM | – | 39.8 nM | Ki (D(3) dopamine receptor [7]): 0.251 nM
O=C(NCCCCN1CCN(c2ccccc2Cl)CC1)c1ccc2ccccc2c1 | 457 nM | 1 nM | 200 nM | –
CCCc1c(C(=O)NCCCCN2CCN(c3ccccc3OC)CC2)nnn1Cc1ccccc1 | 57.5 nM | 11 nM | 302 nM | –
c1ccc(C2CCN(Cc3cnn(-c4ccccc4)c3)CC2)cc1 | 38 nM | 33.1 nM | 0.589 nM | –
O=C(NCCCCN1CCN(c2ccccc2Cl)CC1)c1ccc(Cl)cc1 | 468 nM | 1.7 nM | 282 nM | –

From ChEMBL document CHEMBL1141401, “Structure-selectivity investigations of D2-like receptor ligands by CoMFA and CoMSIA guiding the discovery of D3 selective PET radioligands” (J Med Chem, 2007)
